For one assay, the system named is OPN RNA. Nature of the assay: OPN production inhibition assay in un-stimulated PBMC cultures, OPN RNA. The class given is cell-based. Particulars: 10 μM, harvested 1, 3 and 6 days. Here is the method:
(§1) 10 μM of each drug was added to un-stimulated PBMC cultures at time=0 and cells were harvested 1,3, and 6 days later for quantitative OPN RNA and protein production analysis.

In the next assay the test system is OPN protein. In words: OPN production inhibition assay in un-stimulated PBMC cultures, OPN protein. The class given is cell-based. As to conditions: 10 μM. As to the method:
as §1

Assay [1] relates to CD14+/CD16+ cells. In words: Exogenous rOPN on macrophage yield, flow cytometry of PBMC cultures. The class given is cell-based, human. As to conditions: 10 μg/ml rOPN. As to the method: To determine the role of exogenous recombinant human OPN (rOPN) in macrophage activation, 10 μg/ml rOPN(R&D Systems, Inc., Minneapolis, Minn.) was added to non-adherent PBMC cultures grown in complete or in serum free medium for 24 and 72 hours, and analyzed via flow cytometry. […] Shown in the upper right quadrant in FIG. 8 is the percentage of cells that are double positive for CD14 and CD16 surface markers.

The test system of assay [2] is CD14+/CD16+ cells. Nature of the assay: Macrophage activation via flow cytometry, mononuclear cells cultured for 3 days. The class given is cell-based. Here is the method:
(§2) We investigated macrophage activation via flow cytometry and levels of pro- and anti-inflammatory cytokines in cell culture supernatants of mononuclear cells. 10 μg/ml recombinant human OPN (rOPN) was added to mononuclear cells cultured for 3 days, with and without fetal bovine serum (FBS) in cell culture medium, and analyzed via flow cytometry. […] An increase in CD14+/CD16+ cells was also observed with cells cultured in serum free medium and rOPN in comparison to control. To observe the effects of OPN neutralizing antibody on macrophage activation, 10 μg of antibody was added to cultures for 3 days. […] We also investigated the levels of pro- and anti-inflammatory cytokines in all cell culture supernatants of each time point. On average, IL-6, IL-1β, TNF-α, IL-10, and IL-12p40 were at least 50-fold higher with rOPN at 24 and 72 hours in all culture conditions in comparison to control.
Background: In flow cytometry, cells or beads pass a laser one at a time.

In assay [3] the test system is pro- and anti-inflammatory cytokines. In words: Cytokine levels in cell culture supernatants of mononuclear cells. The class given is cell-based. As to conditions: rOPN. As to the method: as §2
Setting [4] is: 24 and 72 hours, all culture conditions, on average.
Setting [5] is: any time point and culture condition.

The results in this text go back to US9867794B2, “Regulation of osteopontin” (Pathologica LLC, priority 2007, dated 2018).

With `CCNCCCNC/C=C\CNCCCNCC.Cl.Cl.Cl.Cl` [SL47, N,N′-bis(3-ethylaminopropyl)-cis-but-2-ene-1,4-diamine tetrahydrochloride], in the assay on OPN RNA, the “OPN RNA expression” value was “inhibited in a time dependant manner”. Further, in the assay on OPN protein, the OPN protein production result is given as “Complete inhibition”.

Regarding `CCNCCCCNC[C@@H]1C[C@H]1CNCCCCNCC` [SL93, N,N′-(cyclopropane-1,2-diylbis(methylene))bis(N4-ethylbutane-1,4-diamine)], the “OPN RNA expression” value in the assay with OPN RNA is reported as “inhibited in a time dependant manner”. Besides, the OPN protein production entry in the assay on OPN protein was “Complete inhibition”.

Regarding “rOPN: exogenous recombinant human OPN (R&D Systems, Inc.)”, the “accumulation of CD14+/CD16+ cells vs control” value with CD14+/CD16+ cells [1] (complete medium, 24 hours) is listed as “no significant accumulation”. The “increase in CD14+/CD16+ cells vs control” value in the assay with CD14+/CD16+ cells [1] (complete medium, 72 hours) is 11 fold. Further, the “increase in CD14+/CD16+ cells vs serum free control” value with CD14+/CD16+ cells [1] (serum free, 72 hours) was 2.97 fold. For the same molecule, the “accumulation of CD14+/CD16+ cells vs FBS-only control” value with CD14+/CD16+ cells [2] (10 μg/ml rOPN and FBS, 24 hours) is given as “no significant accumulation”. In addition, in the assay with CD14+/CD16+ cells [2] (10 μg/ml rOPN, 72 hours), the “increase in CD14+/CD16+ cells vs control” value is 12 fold. Also, in the assay with CD14+/CD16+ cells [2] (10 μg/ml rOPN, serum free medium), the “CD14+/CD16+ cells vs control” value is on record as “increase”. In assay [3] (setting [4]), the “IL-1β level vs control” value is listed as “at least 50 fold”, the “IL-6 level vs control” value was “at least 50 fold”, the “IL-10 level vs control” value is listed as “at least 50 fold” and the “IL-12p40 level vs control” value is “at least 50 fold”. The “TNF-α level vs control” value in assay [3] (setting [4]) is reported as “at least 50 fold”. Besides, in assay [3] (setting [5]), the “IL-4 level vs control” value is on record as “no significant difference” and the “IL-12p70 level vs control” value was “no significant difference”.

B1: MCSF: growth factor MCSF (protein, UniProt P09603 33-554, looked up)
Macrophage colony-stimulating …: EEVSEYCSHMIGSGHLQSLQRLIDSQMETSCQITFEFVDQEQLKDPVCYLKKAFLLVQDIMEDTMRFRDNTPNAIAIVQLQELSLRLKSCFTKDYEEHDKACVRTFYETPLQLLEKVKNVFNETKNLLDKDWNIFSKNCNNSFAECSSQDVVTKPDCNCLYPKAIPSSDPASVSPHQPLAPSMAPVAGLTWEDSEGTEGSSLLPGEQPLHTVDPGSAKQRPPRSTCQSFEPPETPVVKDSTIGGSPQPRPSVGAFNPGMEDILDSAMGTNWVPEEASGEASEIPVPQGTELSPSRPGGGSMQTEPARPSNFLSASSPLPASAKGQQPADVTGTALPRVGPVRPTGQDWNHTPQKTDHPSALLRDPPEPGSPRISSLRPQGLSNPSTLSAQPQLSRSHSSGSVLPLGELEGRRSTRDRRSPAEPEGGPASEGAARPLPRFNSVPLTDTGHERQSEGSFSPQLQESVFHLLVPSVILVLLAVGGLLFYRWRRRSHQEPQRADSPLEQPEGSPLTQDDRQVELPV
For B1, the “OPN RNA expression” value in the assay with OPN RNA is “no effect”.
